The values that follow are results of earlier work, collected in patent US20030175210A1, “Individualization of therapy with anxiolitics” (McGill University, priority 2001, published 2003).

For the data set the following is noted: in vivo.

Broadly, the half-life is the time in which the quantity being followed falls by half. As for `O=C1Nc2ccc(Cl)cc2C(c2ccccc2Cl)=NC1O` (stereo not shown) [Lorazepam], the half-life was 10 to 15 h.
